Test results taken from patent US20240180895A1, “USE OF KAPPA OPIOID RECEPTOR AGONISTS TO TREAT CARDIOVASCULAR DISEASE” (Board of Supervisors of Louisiana State University and …, priority 2021, published 2024).

Assays:
Type in all cases: in vivo, rat
[1] = test system: Sprague-Dawley rats; assay: Prevention of diuretic resistance to once daily furosemide by difelikefalin, 24-hour urine (FIG. 14); conditions: difelikefalin 20 μg/kg IP added to furosemide 10 mg/kg once daily
Description: Male Sprague-Dawley rats were placed in individual metabolic cages in a room with 12-hour automatic light on/off control and allowed tap water and rodent chow ad libitum. Over the next two (2) days (control period), rats were administered vehicle (5% NaOH; 1 M PBS, IP) in the morning (9:00 am) and urine was then collected for 24-hours.

[2] = test system: conscious Sprague-Dawley rats; assay: Acute cardiovascular and renal excretory studies with ICV or IV norBNI pretreatment (Example 4); conditions: for Urine osmolality / Urine potassium concentration [K+] / Urine sodium concentration [Na+]: total 90-min urine
Description: Male Sprague-Dawley rats (Envigo Labs, Indianapolis, IN) were individually housed, allowed tap water and standard rodent diet ad libitum, and kept under a 12-hour light-dark cycle. Rats used in these experiments weighed between 300 and 350 grams and were randomly assigned to experimental groups. All procedures were conducted in accordance with the National Institutes of Health guidelines for the care and use of animals and approved by the Louisiana State University Health Sciences Center Institutional Animal Care and Use Committee.
Aseptic technique was adhered to for all surgeries and detailed surgical methods were followed as previously described.^14 Briefly, 3-5 days before experimentation, rats requiring central ventricle access for administration of drug/vehicle into the brain were anesthetized with ketamine and xylazine and a stainless-steel cannula was stereotaxically implanted into the right lateral cerebral ventricle.^14
On the morning of the experiment, rats were anesthetized and maintained with inhaled 2% isoflurane, and polyethylene catheters were surgically placed into the left femoral artery, left femoral vein, and urinary bladder.^15.16 Following surgery, rats were placed in an elevated restrainer for recovery and collection of urine from an indwelling bladder catheter.^15 After completion of experimental protocols, rats were anesthetized with isoflurane and decapitated.
During stabilization of cardiovascular and renal excretory parameters, rats received an isotonic saline infusion (55 μl/min), which lasted throughout the duration of the experiment. To record mean arterial pressure (MAP) and heart rate (HR), arterial catheters were connected to a pressure transducer (MLT0670, ADInstruments, Sydney, Australia), which was connected to Powerlab 8/30 (ADInstruments) and visualized using LabChart software (v8.1.5; ADInstruments). After one hour of recovery from surgery, rats were pretreated with the KOR antagonist norBNI or isotonic saline vehicle through either an intracerebroventricular (ICV) catheter or intravenous (IV) catheter. […] Next, drug or vehicle (isotonic saline) was injected into the femoral vein and urine samples were collected every 10 minutes during a 90-minute experimental period. The following drug concentrations were used: nalfurafine 5 μg/kg, difelikefalin 10 μg/kg, norBNI 30 mg/kg (IV), norBNI 1 μg/5 μL (ICV). All groups are n=6. Urine sodium and potassium were measured using a flame photometer (model 943; Instrumentation Laboratories, Lexington, MA). Urine volume was measured gravimetrically, and urine osmolality was measured using a vapor pressure osmometer (model 5600; WESCOR, Logan, UT).
All results are expressed as mean±SEM. For determining statistically different changes at time points within a treatment group, means were compared to the control value using 2-way ANOVA with repeated measures and a post hoc Dunnett test following confirmation of a significant F value. For statistically different changes at individual time points between treatment groups, mean values were compared using 2-way ANOVA with repeated measures and a post hoc Sidak test following confirmation of a significant/value. For means between groups for total urine output, urine sodium concentration, urine potassium concentration, and urine osmolality, a Student/test was used. Statistical significance was characterized as P<0.05 and statistics were performed on Prism 7.05 software (GraphPad Software, Inc, San Diego, CA).

[3] = test system: Sprague-Dawley rats placed on a low-salt diet; assay: Reversal of furosemide diuretic resistance by difelikefalin in rats on a low sodium diet (FIG. 16); conditions: difelikefalin 20 μg/kg IP added on days 13-17, low sodium diet
Description: Male Sprague-Dawley rats were placed in individual metabolic cages in a room with 12-hour automatic light on/off control and allowed tap water. For these studies, rats were placed on a low-salt diet (0.1% NaCl) for one week prior to and throughout the experimental protocol. […] For the first two (2) days (control period), rats were administered vehicle (5% NaOH; 1 M PBS, IP) in the morning (9:00 am) and urine was then collected for 5-hours.

[4] = ICV norBNI (1 μg/5 μL) pretreatment
[5] = IV norBNI (30 mg/kg) pretreatment
[6] = difelikefalin 10 μg/kg IV, no pretreatment

## Difelikefalin
[1]
  Effect on diuretic resistance to furosemide: prevents the diuretic resistance
[2]; [4]
  Effect on HR: No changes in HR
  Effect on MAP: no significant change in MAP
  Urine osmolality: 280 ± 26.99 mmol/kg
  Urine potassium concentration [K+]: 13.63±3.05 μeq/mL
  Urine sodium concentration [Na+]: 47.92±8.30 μeq/mL
[2]; ICV norBNI (1 μg/5 μL) pretreatment, difelikefalin 10 μg/kg or nalfurafine 5 μg/kg IV, 90 min
  Total urine output: 5.49 ± 0.75 mL
[2]; ICV vehicle (5 μL) pretreatment, difelikefalin 10 μg/kg or nalfurafine 5 μg/kg IV, 90 min
  Total urine output: 9.64 ± 0.52 mL
[2]; ICV vehicle pretreatment
  Effect on HR: No changes in HR
  Urine osmolality: 170.7 ± 12.04 mmol/kg
  Urine potassium concentration [K+]: 8.16±1.81 μeq/mL
  Urine sodium concentration [Na+]: 45.24±6.67 μeq/mL
[2]; ICV vehicle pretreatment, peak at 60 min (difelikefalin), 50 min (nalfurafine)
  MAP peak Δ: −4 mmHg
[2]; [5]
  Effect on HR: slight but statistically significant increases in HR
  Urine osmolality: 515 ± 35.8 mmol/kg
  Urine potassium concentration [K+]: 27.78±5.35 μeq/mL
  Urine sodium concentration [Na+]: 140.4±10.7 μeq/mL
[2]; IV norBNI (30 mg/kg) pretreatment, 80-minute peak for difelikefalin
  MAP peak Δ: −4.5 mmHg
[2]; IV norBNI (30 mg/kg) pretreatment, difelikefalin 10 μg/kg or nalfurafine 5 μg/kg IV, 90 min
  Total urine output: 4.44 ± 0.28 mL
[2]; IV vehicle (2 cc/kg) pretreatment, difelikefalin 10 μg/kg or nalfurafine 5 μg/kg IV, 90 min
  Total urine output: 9.49 ± 0.30 mL
[2]; IV vehicle pretreatment
  Effect on HR: slight but statistically significant increases in HR
  Urine osmolality: 161.2 ± 9.98 mmol/kg
  Urine potassium concentration [K+]: 5.66±1.04 μeq/mL
  Urine sodium concentration [Na+]: 38.93±4.01 μeq/mL
[2]; IV vehicle pretreatment, peak at 70 min (difelikefalin), 60 min (nalfurafine)
  MAP peak Δ: −11 mmHg
[2]; [6]
  Duration of the increase in urine flow rate: 50 min
  Effect on HR: Neither IV saline nor difelikefalin altered HR
  Time of peak diuresis: 30 min
  Urine osmolality: 169.70 ± 13.89 mmol/kg
  Urine potassium concentration [K+]: 5.53±0.63 μeq/mL
  Urine sodium concentration [Na+]: 32.22±6.48 μeq/mL
[2]; difelikefalin 10 μg/kg IV, no pretreatment (FIG. 9B), 90-minute period, mean±SEM, n=6
  Total urine output: 10.62 ± 0.47 mL
[3]
  Effect on established diuretic resistance to furosemide: rescues the established diuretic resistance
